This is an account of results in PubChem BioAssay (NCI).

Test systems include MOLT-4 leukemia; RPMI-8226 leukemia; TK-10 renal; NCI-H460 lung; SR leukemia; K-562 leukemia; MDA-MB-435; A549 NSCLC; BT-549 breast; HOP-62 NSCLC; HCT-116 colon; UACC-257 melanoma; LOX IMVI melanoma; HCC-2998 colon; SK-MEL-28 melanoma; HT29 colon; 786-0 renal; SNB-19 CNS; SN12C renal.
Common to all, as to assay: growth of human tumour cells (NCI), 48 h

Structures are written as SMILES.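 Dose response: 5 concentrations. Exposure: 48 h. Format: 96-well plates. Endpoint: linear interpolation; highest concentration if not reached. TGI denotes the concentration required for complete inhibition of growth.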

For the compound `O=C(NNC1=NCCCCN1)Nc1ccc(Cl)cc1`, the TGI is 72.4 µM in the assay with MOLT-4 leukemia; above 100 µM with RPMI-8226 leukemia; above 100 µM with TK-10 renal; above 100 µM in the assay with NCI-H460 lung; above 100 µM in the assay with SR leukemia; above 100 µM in the assay on K-562 leukemia. The TGI with MDA-MB-435, with A549 NSCLC, in the assay on BT-549 breast, with HOP-62 NSCLC, in the assay with HCT-116 colon and with UACC-257 melanoma was above 100 µM each time. The TGI in the assay with LOX IMVI melanoma, with HCC-2998 colon, in the assay with SK-MEL-28 melanoma, with HT29 colon, with 786-0 renal and with SNB-19 CNS was above 100 µM each time.
Turning to `O=c1[nH]nc(Cc2ccccc2)n1CCCl`, the TGI in the assay on MOLT-4 leukemia, in the assay with RPMI-8226 leukemia, in the assay with NCI-H460 lung, in the assay with SR leukemia, in the assay on K-562 leukemia and in the assay on MDA-MB-435 was above 100 µM each time. Moreover, the TGI with SN12C renal, with BT-549 breast, with HOP-62 NSCLC, with HCT-116 colon, with LOX IMVI melanoma and with HCC-2998 colon was above 100 µM each time. The TGI with SK-MEL-28 melanoma, in the assay on HT29 colon, with 786-0 renal and in the assay on SNB-19 CNS was above 100 µM each time.
With `C[C@]12CC[C@H]3[C@@H](CC=C4C[C@@H](O)CC[C@@]43C)[C@@H]1C/C(=C/c1ccccc1)[C@@H]2O`, the TGI is above 100 µM with MOLT-4 leukemia; above 100 µM in the assay with RPMI-8226 leukemia; above 53.3 µM in the assay on TK-10 renal; above 100 µM in the assay on NCI-H460 lung; above 100 µM in the assay on SR leukemia; above 100 µM in the assay on K-562 leukemia. The TGI was above 83.4 µM in the assay on MDA-MB-435; above 51.5 µM in the assay on A549 NSCLC; 72.4 µM in the assay on BT-549 breast; 54.8 µM with HOP-62 NSCLC; above 45.3 µM in the assay on HCT-116 colon; 45.4 µM in the assay with UACC-257 melanoma. Moreover, the TGI in the assay with LOX IMVI melanoma is above 50.2 µM; in the assay on HCC-2998 colon it was above 60.3 µM; in the assay with SK-MEL-28 melanoma it was above 91.2 µM; in the assay with HT29 colon it was above 79.3 µM; in the assay on 786-0 renal it was above 51.9 µM; in the assay with SNB-19 CNS, above 56.5 µM.
Take `C=CCN1C[C@H](C)N([C@@H](c2ccc(C(=O)N3CCCCC3)cc2)c2cccc(OC)c2)C[C@H]1C`: the TGI in the assay on MOLT-4 leukemia was above 100 µM; with TK-10 renal, above 100 µM; in the assay on NCI-H460 lung, above 100 µM; with SR leukemia it was 35.4 µM; in the assay with K-562 leukemia, 60.8 µM; in the assay with MDA-MB-435 it was above 100 µM. Moreover, the TGI is above 100 µM in the assay with SN12C renal; above 100 µM in the assay on A549 NSCLC; above 100 µM in the assay with BT-549 breast; above 100 µM with HOP-62 NSCLC; above 100 µM with HCT-116 colon; 50 µM with UACC-257 melanoma. The TGI is above 100 µM in the assay with LOX IMVI melanoma; 99.5 µM with HCC-2998 colon; above 100 µM in the assay on HT29 colon; above 100 µM in the assay with 786-0 renal; above 100 µM in the assay on SNB-19 CNS.
Take `CCOC(=O)c1cc2c3c(c(C(C)=O)c(O)c2[nH]1)N(C(C)=O)CC3`: the TGI in the assay with MOLT-4 leukemia, in the assay on RPMI-8226 leukemia, in the assay on TK-10 renal, in the assay on NCI-H460 lung, with SR leukemia and in the assay on K-562 leukemia was above 100 µM throughout. Further, the TGI in the assay with MDA-MB-435, in the assay on SN12C renal, in the assay with BT-549 breast, with HOP-62 NSCLC, in the assay on HCT-116 colon and with UACC-257 melanoma was above 100 µM throughout. Further, the TGI in the assay with LOX IMVI melanoma, in the assay on SK-MEL-28 melanoma, in the assay with HT29 colon, in the assay on 786-0 renal and in the assay with SNB-19 CNS was above 100 µM each time.
Take `CN(C)CCCSc1nc2c(c(=N)n1-c1ccccc1)c(=S)n(-c1ccccc1)c(=S)n2-c1ccccc1`: the TGI worked out at 3.28 µM with MOLT-4 leukemia; 1.84 µM in the assay with RPMI-8226 leukemia; 3.09 µM in the assay with TK-10 renal; 3.24 µM with NCI-H460 lung; 1.07 µM in the assay on SR leukemia; 3.81 µM in the assay with K-562 leukemia. The TGI in the assay on MDA-MB-435 came out at 3.09 µM; with SN12C renal it was 3.18 µM; in the assay with A549 NSCLC it was 4.58 µM; in the assay with BT-549 breast, 3.38 µM; in the assay with HOP-62 NSCLC it was 3.4 µM; in the assay on HCT-116 colon, 3.46 µM. Further, the TGI was 3.32 µM in the assay with UACC-257 melanoma; 2.87 µM in the assay on LOX IMVI melanoma; 2.82 µM with HCC-2998 colon; 3.88 µM in the assay with SK-MEL-28 melanoma; 2.66 µM in the assay on 786-0 renal; 8.14 µM with SNB-19 CNS.
On to `CC1=NC2c3c(-c4ccc(Cl)cc4)cn(-c4ccc(C)cc4)c3N=CN2N1` (centres undefined), for which the TGI with TK-10 renal, in the assay on NCI-H460 lung, in the assay on SR leukemia, in the assay on K-562 leukemia, with MDA-MB-435 and in the assay with SN12C renal was above 100 µM throughout. The TGI in the assay on A549 NSCLC, in the assay on BT-549 breast, with HOP-62 NSCLC, with HCT-116 colon, with UACC-257 melanoma and in the assay on LOX IMVI melanoma was above 100 µM in each case. Besides, the TGI in the assay with HCC-2998 colon, in the assay with SK-MEL-28 melanoma, with HT29 colon, in the assay on 786-0 renal and in the assay with SNB-19 CNS was above 100 µM each time.
As for `O=C(O)c1nc2ccc(C(F)(F)F)cc2nc1NCc1ccc(Cl)c(Cl)c1`, the TGI in the assay on MOLT-4 leukemia is 34.2 µM; with RPMI-8226 leukemia, above 100 µM; with NCI-H460 lung, 30.8 µM; in the assay with SR leukemia, 36.5 µM; in the assay with K-562 leukemia, 42.1 µM; with MDA-MB-435, 30 µM. In addition, the TGI in the assay on SN12C renal came out at 28.8 µM; in the assay with A549 NSCLC, 29.7 µM; with BT-549 breast, 33.1 µM; in the assay on HOP-62 NSCLC, 32.2 µM; in the assay with HCT-116 colon, 29.7 µM; in the assay with UACC-257 melanoma it was 54.3 µM. Further, the TGI in the assay on LOX IMVI melanoma worked out at 29.8 µM; with HCC-2998 colon, 30.5 µM; with SK-MEL-28 melanoma, 33.7 µM; in the assay on HT29 colon, 28.5 µM; in the assay with 786-0 renal, 29.3 µM; with SNB-19 CNS it was 25.1 µM.
